In the assay the target is T1, mUSP18 (Mus musculus, UniProt Q9WTV6).
T1 construct: (46-368); His-tag (N); made in house
T1 sequence (Q9WTV6 46-368): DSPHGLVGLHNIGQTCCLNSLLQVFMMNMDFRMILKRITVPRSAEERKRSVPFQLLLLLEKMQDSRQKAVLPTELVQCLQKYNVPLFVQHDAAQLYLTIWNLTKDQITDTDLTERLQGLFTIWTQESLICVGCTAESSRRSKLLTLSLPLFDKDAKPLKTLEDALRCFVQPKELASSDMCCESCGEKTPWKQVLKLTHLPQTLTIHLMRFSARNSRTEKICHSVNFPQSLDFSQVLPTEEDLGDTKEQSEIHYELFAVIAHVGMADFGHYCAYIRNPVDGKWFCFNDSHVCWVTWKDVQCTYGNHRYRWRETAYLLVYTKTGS
The assay is described as follows: High-throughput screening, ISG15ct-RhoMP, single dose 1.25 µM. The assay is classed as biochemical, murine.

[1] abbreviates: mUSP18 %inhibition, carboxylic acid (CA) building block alone, read-out: %inh CA only.
[2] abbreviates: mUSP18 %inhibition, carboxylic acid (CA) with coupling reagents DIC/HOBT, read-out: %inh CA + DIC/HOBT.
Setting [3] is: mUSP18 %inhibition, carboxylic acid (CA) building block alone.
Setting [4] is: mUSP18 %inhibition, carboxylic acid (CA) with coupling reagents DIC/HOBT.

Where two headings read alike, the source gives them in different places.

For the compound `CSCCC(NC(C)=O)C(=O)O` (centres unmarked) [CA001], the inhibition at 1.25 µM runs as follows: under setting [1], 4.64%; under setting [2], -9.16%.

In the case of `CC(=O)NCC(=O)O` [CA002], the inhibition at 1.25 µM reads like this: under setting [1], 0.89%; under setting [2], -10.9%.

`CC(C)CC(=O)O` [CA003]: the inhibition at 1.25 µM by setting is: under setting [1], -0.18%; under setting [2], -12.3%.

`O=C(O)c1ccccc1I` [CA004]: the inhibition at 1.25 µM under setting [1] is -4.47% and the inhibition at 1.25 µM under setting [2] was -12.2%.

With `CC(C)C(=O)O` [CA005], the inhibition at 1.25 µM under setting [1] was -4.83% and the inhibition at 1.25 µM under setting [2] is -18%.

As for `Cc1cc(OCC(=O)O)ccc1C(C)C` [CA006], the inhibition at 1.25 µM by setting is: under setting [1], -6.56%; under setting [2], -10.7%.

Regarding `CCCC(=O)O` [CA007], the inhibition at 1.25 µM by setting is: under setting [1], -4.83%; under setting [2], -14.7%.

`CC(C)(C)OC(=O)Nc1ccccc1C(=O)O` [CA009]: the inhibition at 1.25 µM is, setting by setting: under setting [1], -1.43%; under setting [2], -19.3%.

Regarding `Cc1cncc(C(=O)O)c1` [CA010], the inhibition at 1.25 µM is -2.59% under setting [1] and -11.3% under setting [2].

Turning to `O=C(O)CCN1C(=O)C=CC1=O` [CA011], the inhibition at 1.25 µM was 7.63% under setting [1] and -2.16% under setting [2].

Turning to `O=C(O)Cc1ccc([N+](=O)[O-])cc1` [CA012], the inhibition at 1.25 µM is -3.85% under setting [1] and -8.78% under setting [2].

On to `O=C(O)Cc1ccccc1[N+](=O)[O-]` [CA013], for which the inhibition at 1.25 µM under setting [1] amounted to 7.76% and the inhibition at 1.25 µM under setting [2] is -7.61%.

For `C#CCCC(=O)O` [CA014], the inhibition at 1.25 µM under setting [1] is -1.43% and the inhibition at 1.25 µM under setting [2] is -9.92%.

As for `O=C(O)c1cnccn1` [CA015], under setting [3], the “%inh CA only” value is given as -1.35%. Besides, under setting [4], the “%inh CA + DIC/HOBT” value was -15.60%.

For `O=C(O)c1ccc(/N=N/c2ccccc2)cc1` [CA016], the inhibition at 1.25 µM under setting [1] was 3.44% and the inhibition at 1.25 µM under setting [2] was -5.83%.

Take `O=C(O)Cc1ccncc1` [CA017]: the inhibition at 1.25 µM was -7.18% under setting [1] and -13% under setting [2].

`Cn1c(=O)c2c(ncn2CC(=O)O)n(C)c1=O` [CA018]: the inhibition at 1.25 µM was -2.06% under setting [1] and -10.4% under setting [2].

On to `O=C(O)CNC(=O)c1ccccc1` [CA019], for which the inhibition at 1.25 µM reads like this: under setting [1], -4.39%; under setting [2], -8.67%.

`O=C(O)c1ccc(B(O)O)cc1` [CA020]: the inhibition at 1.25 µM is -7.88% under setting [1] and -9.11% under setting [2].

Take `CC(C)(C)OC(=O)NCC(=O)O` [CA021]: the inhibition at 1.25 µM under setting [1] is -6.16% and the inhibition at 1.25 µM under setting [2] was -9.92%.

In the case of `CC(C)(C)OC(=O)N[C@@H](Cc1cn(-c2ccc([N+](=O)[O-])cc2[N+](=O)[O-])cn1)C(=O)O` [CA022], the inhibition at 1.25 µM runs as follows: under setting [1], -4.55%; under setting [2], -8.26%.

Consider `O=C(O)CCCCBr` [CA023], for which the inhibition at 1.25 µM reads like this: under setting [1], -5.49%; under setting [2], -14.3%.

Consider `O=C(O)C(Br)c1ccccc1` (centres unmarked) [CA024], for which the inhibition at 1.25 µM reads like this: under setting [1], -2.41%; under setting [2], -9.9%.

In the case of `O=C(O)CCCCCBr` [CA025], the inhibition at 1.25 µM under setting [1] was determined as 7.25% and the inhibition at 1.25 µM under setting [2] is -8.17%.

Regarding `O=C(O)c1ccccc1CCc1ccccc1` [CA026], the inhibition at 1.25 µM by setting is: under setting [1], 2.38%; under setting [2], -14.8%.

On to `O=C(O)c1ccc(CBr)cc1` [CA027], for which the inhibition at 1.25 µM is, setting by setting: under setting [1], 0.19%; under setting [2], -11.3%.

Take `Cc1cc(C(=O)O)ccc1Br` [CA028]: the inhibition at 1.25 µM is -3.46% under setting [1] and -11% under setting [2].

In the case of `C#CCCCC(=O)O` [CA029], the inhibition at 1.25 µM was -11.6% (read-out: %inh CA + DIC/HOBT) and -3.41% (read-out: %inh CA only).

`O=C(O)c1nccc2ccccc12` [CA030]: the inhibition at 1.25 µM is, setting by setting: under setting [1], -2.62%; under setting [2], -9.45%.

Consider `Cc1c(Br)cccc1C(=O)O` [CA031], for which the inhibition at 1.25 µM is, setting by setting: under setting [1], -3.59%; under setting [2], -10.1%.

As to `CC(=O)CCCCC(=O)O` [CA032], the inhibition at 1.25 µM is -5.09% under setting [1] and -11.3% under setting [2].

With `Cc1ccc(Br)c(C(=O)O)c1` [CA033], the “%inh CA only” value under setting [3] is -2.06%. Under setting [4], the “%inh CA + DIC/HOBT” value is recorded as -9.49%.

On to `O=C(O)c1sccc1Br` [CA034], for which the inhibition at 1.25 µM by setting is: under setting [1], -2.15%; under setting [2], -14%.

As to `O=C(NNc1ccc(C(=O)O)cc1)OCC1c2ccccc2-c2ccccc21` [CA035], the inhibition at 1.25 µM worked out at 9.05% under setting [1] and 23.4% under setting [2].

For the compound `O=Cc1cn(CC(=O)O)c2ccccc12` [CA036], the inhibition at 1.25 µM was -2.36% under setting [1] and -8.7% under setting [2].

Regarding `O=Cc1ccc(C(=O)O)cc1` [CA037], the inhibition at 1.25 µM is, setting by setting: under setting [1], 9.56%; under setting [2], -5.24%.

As for `O=C(O)c1cccc2c1-c1ccccc1C2` [CA038], the inhibition at 1.25 µM is, setting by setting: under setting [1], 6.69%; under setting [2], -7.2%.

In the case of `O=Cc1ccc(O)c(C(=O)O)c1` [CA040], the inhibition at 1.25 µM reads like this: under setting [1], 1.03%; under setting [2], -7.73%.

For `CCCN(CCC)S(=O)(=O)c1ccc(C(=O)O)cc1` [CA041], the inhibition at 1.25 µM runs as follows: under setting [1], -0.96%; under setting [2], -9.25%.

For `CN1C(=O)C[C@@H](C(=O)O)[C@@H]1c1cccnc1` [CA042], the “%inh CA only” value under setting [3] amounted to 0.50%. The “%inh CA + DIC/HOBT” value under setting [4] was -12.12%.

`O=C(O)CCc1ccccc1Br` [CA043]: the inhibition at 1.25 µM is -0.54% under setting [1] and -8.19% under setting [2].

Consider `CC(=O)CCCC(=O)O` [CA044], for which the inhibition at 1.25 µM is -3.03% under setting [1] and -7.52% under setting [2].

Regarding `O=Cc1ccccc1C(=O)O` [CA045], the inhibition at 1.25 µM under setting [1] is -3.41% and the inhibition at 1.25 µM under setting [2] is -8.39%.

Turning to `O=Cc1cccc(C(=O)O)c1` [CA046], the inhibition at 1.25 µM by setting is: under setting [1], 0.78%; under setting [2], -7.39%.

`O=C(O)CN1C(=O)c2ccccc2C1=O` [CA049]: the inhibition at 1.25 µM reads like this: under setting [1], 0.06%; under setting [2], -15.8%.

In the case of `COc1cc(CC(=O)O)ccc1O` [CA050], the inhibition at 1.25 µM reads like this: under setting [1], -1.29%; under setting [2], -15.5%.

`O=C(O)CCc1ccc(O)cc1` [CA051]: the inhibition at 1.25 µM is, setting by setting: under setting [1], -3.68%; under setting [2], -16.6%.

For the compound `CNc1ccc(C(=O)O)cc1` [CA052], the inhibition at 1.25 µM is, setting by setting: under setting [1], -7.36%; under setting [2], -19.1%.

Consider `Cc1ccc(Br)c(C(=O)O)c1` [CA053], for which the “%inh CA only” value under setting [3] is -8.05%. Besides, the “%inh CA + DIC/HOBT” value under setting [4] is -15.25%.

Regarding `O=C(O)c1cc([N+](=O)[O-])ccc1Br` [CA054], the inhibition at 1.25 µM is -7.96% under setting [1] and -15.9% under setting [2].

As for `O=C(O)c1c(F)c(F)c(O)c(F)c1F` [CA055], the inhibition at 1.25 µM is, setting by setting: under setting [1], -5.28%; under setting [2], -14.4%.

As for `CC(=O)CCC(=O)O` [CA056], the inhibition at 1.25 µM reads like this: under setting [1], -7.82%; under setting [2], -15.2%.

Turning to `O=C(O)c1cccc(B(O)O)c1` [CA057], the inhibition at 1.25 µM was -5.9% under setting [1] and -16.2% under setting [2].

Consider `O=C(O)CCc1cccnc1` [CA058], for which the inhibition at 1.25 µM under setting [1] was -2.47% and the inhibition at 1.25 µM under setting [2] was -16.4%.

Take `O=C(O)c1ccc(F)c(F)c1` [CA059]: the inhibition at 1.25 µM under setting [1] is -4.22% and the inhibition at 1.25 µM under setting [2] was -18.1%.

Regarding `CC(C)(C)OC(=O)NC1(C(=O)O)CC1` [CA060], the inhibition at 1.25 µM under setting [1] was -6.62% and the inhibition at 1.25 µM under setting [2] was -13.2%.

Turning to `O=C(NCc1ccc(C(=O)O)cc1)OCC1c2ccccc2-c2ccccc21` [CA061], the inhibition at 1.25 µM reads like this: under setting [1], 13.4%; under setting [2], -3.66%.

On to `CN(C)c1ccc(C(=O)O)cc1` [CA062], for which the inhibition at 1.25 µM reads like this: under setting [1], -0.0145%; under setting [2], 33.7%.

`CC(C)(C)OC(=O)N1C[C@@H](O)C[C@@H]1C(=O)O` [CA063]: the inhibition at 1.25 µM by setting is: under setting [1], -5.22%; under setting [2], -16.4%.

With `O=C(O)c1ccc(N2CCCC2)cc1F` [CA064], the inhibition at 1.25 µM was -1.15% under setting [1] and -11.3% under setting [2].

In the case of `CC(C)(C)OC(=O)N1CC[C@H](C(=O)O)C1` [CA067], the inhibition at 1.25 µM reads like this: under setting [1], -11.3%; under setting [2], -14.4%.

Regarding `O=C(O)c1ccc2cc3ccccc3cc2c1` [CA068], the inhibition at 1.25 µM is, setting by setting: under setting [1], 6.72%; under setting [2], 2.22%.

For the compound `O=C(O)c1cccc2cc3ccccc3cc12` [CA069], the inhibition at 1.25 µM under setting [1] was -0.58% and the inhibition at 1.25 µM under setting [2] was -8.94%.

As for `N#CCC(=O)O` [CA070], the inhibition at 1.25 µM was -5.36% under setting [1] and -14.2% under setting [2].

`CC(=O)Oc1ccccc1C(=O)O` [CA071]: the inhibition at 1.25 µM is -4.57% under setting [1] and -15.7% under setting [2].

As to `O=C(O)CCc1ccccc1` [CA072], the inhibition at 1.25 µM was -7.29% under setting [1] and -13.3% under setting [2].

Regarding `O=C(O)C(Cl)(Cl)Cl` [CA073], the inhibition at 1.25 µM runs as follows: under setting [1], 4.86%; under setting [2], -12.6%.

Take `O=C(O)CN1CCOCC1` [CA074]: the inhibition at 1.25 µM by setting is: under setting [1], -1.88%; under setting [2], -17.1%.

For the compound `O=C1CC(C(=O)O)NC(=O)N1` (centres unmarked) [CA075], the inhibition at 1.25 µM was -4.58% under setting [1] and -15.1% under setting [2].

Turning to `CN1CCN(CC(=O)O)CC1` [CA076], the inhibition at 1.25 µM was -7.27% under setting [1] and -15.7% under setting [2].

The record behind these values is article PMC12668310, “High‐Throughput Synthesis and Screening of a Cyanimide Library Identifies Selective Inhibitors of ISG15‐Specific Protease mUSP18” (Angewandte Chemie (International Ed. in English), 2025).
